Reference: patent US20240059755A1, “NANOLIPOPROTEIN-POLYPEPTIDE CONJUGATES AND COMPOSITIONS, SYSTEMS, AND METHODS USING SAME” (Genentech, Inc., priority 2020, published 2024)

System: trypsin
Experiment: Trypsin enzymatic assay (L-Arg-AMC substrate)
Assay type: biochemical
Protocol: Briefly, the peptide NLP conjugates were incubated at the indicated concentration with trypsin (2 nM) for 30 min at room temperature. The substrate L-Arginine-7-amido-4-methylcoumarin (L-Arg-AMC) (75 μM) was added to the mixture and the proteolytic activity was measured immediately. Samples were run in triplicate and repeated twice. The data were analyzed using KaleidaGraph software.

## CCCCCCCCCCCCCCCC(=O)NCCCC[C@H](N)C(=O)NCC(=O)N[C@@H](CO)C(=O)NCC(=O)N[C@@H](CO)C(=O)NCC(=O)N[C@H]1CSSC[C@@H]2NC(=O)CNC(=O)[C@H](C)NC(=O)[C@H](CC(C)C)NC(=O)[C@@H]3CSSC[C@@H](C(=O)NCC(=O)O)NC(=O)[C@H](Cc4ccccc4)NC(=O)CNC(=O)[C@H](CC(N)=O)NC(=O)[C@@H]4CCCN4C(=O)CNC(=O)[C@H](CSSC[C@H](NC(=O)[C@H](CCCNC(=N)N)NC(=O)[C@H](CCSC)NC(=O)[C@H](CC(C)C)NC(=O)[C@H]([C@@H](C)CC)NC(=O)[C@H](CCCNC(=N)N)NC(=O)[C@@H]4CCCN4C1=O)C(=O)N[C@@H](CCCCN)C(=O)N[C@@H](CCC(N)=O)C(=O)N[C@@H](CC(=O)O)C(=O)N[C@@H](CO)C(=O)N[C@@H](CC(=O)O)C(=O)N3)NC(=O)[C@H](C(C)C)NC2=O [CKP-C16]
  trypsin inhibitory activity: inhibitory potency
